Experimental data taken from USRE47193E1, “Selectively substituted quinoline compounds” (EISAI R&D MANAGEMENT CO., LTD., priority 2013, dated 2019).
Where two headings read alike, the source gives them in different places.

What was measured:
[1] = test system: Human TLR7/8; assay: Human PBMC cell-based assay, TLR7/8 stimulus (RNA-Ig), cytokine ELISA
Procedure, shortened: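 The agonist was RNA-Ig, a U1 snRNA-derived 26-mer RNA (2.5 μM) complexed with RNA-cross-reacting anti-ssDNA mAb (1:25 or 1 ug/ml), added after 30 min compound pre-incubation (0.1% DMSO). Density-gradient PBMC from healthy donors, 2×10^5/well, were stimulated 20 h at 37 °C; cytokines quantified by ELISA.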

[2] = molecular target: T1, mouse TLR7 (Mus musculus, UniProt P58681); assay: Short-term in vivo (STIV) assay: oral dosing, R848 s.c., plasma IL-6; design: female BALB/c mice (Jackson Labs, Bar Harbor, Me.) were dosed by oral gavage; tissue Jackson Labs; host or cells: living female BALB/c mice; plasma IL-6 after s.c. R848
T1 sequence (P58681 27-1050): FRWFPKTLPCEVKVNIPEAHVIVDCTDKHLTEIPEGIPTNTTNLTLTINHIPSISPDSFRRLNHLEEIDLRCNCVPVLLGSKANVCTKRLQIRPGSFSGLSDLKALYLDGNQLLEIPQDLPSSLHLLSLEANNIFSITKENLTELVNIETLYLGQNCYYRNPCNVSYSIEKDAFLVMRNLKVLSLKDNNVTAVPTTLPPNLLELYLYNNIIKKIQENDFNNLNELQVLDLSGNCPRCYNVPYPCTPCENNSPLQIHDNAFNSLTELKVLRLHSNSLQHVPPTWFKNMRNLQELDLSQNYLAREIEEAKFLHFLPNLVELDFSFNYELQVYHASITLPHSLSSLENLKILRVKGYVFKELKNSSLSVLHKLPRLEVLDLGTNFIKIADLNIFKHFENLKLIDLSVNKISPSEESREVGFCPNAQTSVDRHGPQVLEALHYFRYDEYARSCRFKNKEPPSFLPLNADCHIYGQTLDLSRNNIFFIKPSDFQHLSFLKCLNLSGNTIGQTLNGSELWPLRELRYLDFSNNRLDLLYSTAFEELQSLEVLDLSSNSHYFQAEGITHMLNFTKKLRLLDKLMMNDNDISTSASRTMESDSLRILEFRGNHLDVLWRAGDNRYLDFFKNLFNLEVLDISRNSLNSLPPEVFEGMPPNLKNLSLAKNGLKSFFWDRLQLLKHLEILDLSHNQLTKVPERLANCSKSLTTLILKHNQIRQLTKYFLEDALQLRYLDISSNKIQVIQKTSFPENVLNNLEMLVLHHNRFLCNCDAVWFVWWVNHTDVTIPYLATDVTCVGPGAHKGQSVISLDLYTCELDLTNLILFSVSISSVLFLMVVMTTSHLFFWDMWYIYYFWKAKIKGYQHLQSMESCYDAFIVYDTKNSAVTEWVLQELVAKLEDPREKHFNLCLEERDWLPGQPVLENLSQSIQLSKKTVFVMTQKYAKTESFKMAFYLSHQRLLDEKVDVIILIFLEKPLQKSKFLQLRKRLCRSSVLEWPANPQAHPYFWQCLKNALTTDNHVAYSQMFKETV
Procedure, shortened: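 Female BALB/c mice (6–8 weeks) dosed orally with compound in 0.5% aqueous methyl-cellulose at 33, 100 or 300 mg/kg; at various times afterwards given 15 ug R848 s.c. to stimulate TLR7. Plasma IL-6 measured by ELISA to gauge potency and duration of action.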

[3] = primary human PBMC assay, TLR7/8 potency; ligand not given; read-out: Human PBMCs IC50

| Structure (SMILES) | IC50 [1, 3] [nM] | % Suppression vs. Vehicle ([2]; 13 h, 100 mg/kg) [%] | % Suppression vs. Vehicle ([2]; 6 h, 100 mg/kg) [%] | other results |
| --- | --- | --- | --- | --- |
| CC1CN(c2ccc(C#N)c3ncccc23)CC(C(=O)NCC2CNCCO2)O1 (stereo not shown) [ER-898694] | 2 | 36 | – | % Suppression vs. Vehicle ([2]; 6 h, 33 mg/kg): 93%; % Suppression vs. Vehicle ([2]; 13 h, 33 mg/kg): 2%; % Suppression vs. Vehicle ([2]; 13 h, 300 mg/kg): 53%; % Suppression vs. Vehicle ([2]; 24 h, 33 mg/kg): 0%; % Suppression vs. Vehicle ([2]; 24 h, 100 mg/kg): 0%; % Suppression vs. Vehicle ([2]; 24 h, 300 mg/kg): 35% |
| CC1CN(c2ccc(C#N)c3ncccc23)CC(C(=O)NC2CCNCC2)O1 (stereo not shown) [ER-898946] | 2 | 16 | – | % Suppression vs. Vehicle ([2]; 6 h, 33 mg/kg): 61%; % Suppression vs. Vehicle ([2]; 13 h, 33 mg/kg): 2%; % Suppression vs. Vehicle ([2]; 13 h, 300 mg/kg): 55%; % Suppression vs. Vehicle ([2]; 24 h, 33 mg/kg): 28%; % Suppression vs. Vehicle ([2]; 24 h, 100 mg/kg): 0%; % Suppression vs. Vehicle ([2]; 24 h, 300 mg/kg): 34% |
| CC1CN(c2ccc(C#N)c3ncccc23)CC(C(=O)N2CC3(CCNC3)C2)O1 (stereo not shown) [ER-899017] | 4 | 0 | – | % Suppression vs. Vehicle ([2]; 6 h, 33 mg/kg): 34%; % Suppression vs. Vehicle ([2]; 13 h, 33 mg/kg): 0%; % Suppression vs. Vehicle ([2]; 13 h, 300 mg/kg): 10%; % Suppression vs. Vehicle ([2]; 24 h, 100 mg/kg): 0%; % Suppression vs. Vehicle ([2]; 24 h, 300 mg/kg): 0% |
| CNCC1CN(C(=O)[C@H]2CN(c3ccc(C#N)c4ncccc34)C[C@@H](C)O2)C1 [ER-899018] | 9 | 12 | 73 | – |
| CC1CN(c2ccc(C#N)c3ncccc23)CC(C(=O)NC2CCOCC2)O1 (stereo not shown) [ER-899122] | 80 | 100 | – | % Suppression vs. Vehicle ([2]; 6 h, 11 mg/kg): 98%; % Suppression vs. Vehicle ([2]; 13 h, 11 mg/kg): 37%; % Suppression vs. Vehicle ([2]; 13 h, 33 mg/kg): 90%; % Suppression vs. Vehicle ([2]; 24 h, 11 mg/kg): 0%; % Suppression vs. Vehicle ([2]; 24 h, 33 mg/kg): 15%; % Suppression vs. Vehicle ([2]; 24 h, 100 mg/kg): 89% |
| CC1CN(c2ccc(C#N)c3ncccc23)CC(C(=O)N2CCC3(CCNCC3)CC2)O1 (stereo not shown) [ER-899193] | 9 | 52 | 43 | – |
| CC1CN(c2ccc(C#N)c3ncccc23)CC(C(=O)Nc2cnn(C3CCNCC3)c2)O1 (stereo not shown) [ER-899285] | 7 | 0 | 75 | – |
| C[C@@H]1CN(c2ccc(C#N)c3ncccc23)C[C@H](C(=O)N[C@@H]2CCCN(C)C2)O1 [ER-899337] | 2 | 30 | 99 | – |
| CC1CN(c2ccc(C#N)c3ncccc23)CC(C(=O)NC2CCCNCC2)O1 (stereo not shown) [ER-899417] | 1 | 0 | 71 | – |
| CC1CN(c2ccc(C#N)c3ncccc23)CC(C(=O)NC2C3CNCC32)O1 (stereo not shown) [ER-899418] | 5 | 10 | 19 | – |
| CC1CN(c2ccc(C#N)c3ncccc23)CC(C(=O)NC2CNCC2F)O1 (stereo not shown) [ER-899476] | – | 65 | 99 | IC50 ([1]; read-out: Human PBMCs IC50; primary human PBMC assay, TLR7/8 potency; ligand not given): 3 nM |
| C[C@@H]1CN(c2ccc(C#N)c3ncccc23)C[C@H](C(=O)NC2CCN(CC(N)=O)CC2)O1 [ER-899481] | 8 | 5 | 54 | – |
| C[C@@H]1CN(c2ccc(C#N)c3ncccc23)C[C@H](C(=O)N(C)[C@@H]2CCCNC2)O1 [ER-899616] | 54 | 27 | 79 | – |
| C[C@@H]1CN(c2ccc(C#N)c3ncccc23)C[C@H](C(=O)N(C)[C@H]2CCCNC2)O1 [ER-899619] | 33 | 35 | 79 | – |
| CC1CN(c2ccc(C#N)c3ncccc23)CC(C(=O)NC2CCCN(C)C2)O1 (stereo not shown) [ER-899688] | 11 | 96 | 10 | – |
| C[C@@H]1CN(c2ccc(C#N)c3ncccc23)C[C@H](C(=O)N[C@@H]2CNC[C@@H]2F)O1.Cl [ER-899745] | 4 | 5 | 100 | – |
